Measurements reported in PubChem BioAssay (NCI).
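Following 48 hours of exposure in 96-well plates, responses at five concentrations were used to interpolate endpoints linearly. The concentration for full growth arrest is given as TGI.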

Legend:
Assay in all cases: NCI anticancer screen, dose series, 48 h
A549 NSCLC = system: A549 NSCLC
CCRF-CEM leukemia = system: CCRF-CEM leukemia
HOP-92 NSCLC = system: HOP-92 NSCLC
MALME-3M melanoma = system: MALME-3M melanoma
NCI-H226 lung = system: NCI-H226 lung
NCI-H460 lung = system: NCI-H460 lung
PC-3 prostate = system: PC-3 prostate
SF-295 CNS = system: SF-295 CNS
SK-MEL-5 melanoma = system: SK-MEL-5 melanoma
UO-31 renal = system: UO-31 renal

Row | SMILES | TGI (A549 NSCLC) | TGI (CCRF-CEM leukemia) | TGI (HOP-92 NSCLC) | TGI (MALME-3M melanoma) | TGI (NCI-H226 lung) | TGI (NCI-H460 lung) | TGI (PC-3 prostate) | TGI (SF-295 CNS) | TGI (SK-MEL-5 melanoma) | TGI (UO-31 renal)
1 | O=C(NCc1ccccc1)c1cc2ccccc2oc1=Nc1cccc(C(F)(F)F)c1 | > 100 µM | > 100 µM | > 100 µM | > 100 µM | 97.7 µM | > 100 µM | > 100 µM | > 100 µM | 70.8 µM | > 100 µM
2 | O=C(ON=C1c2ccccc2C(Br)C(Br)c2ccccc21)c1ccccc1 (stereo not given) | 44 µM | 2.05 µM | 5.27 µM | 37.1 µM | 34.1 µM | 18.8 µM | 40.2 µM | 36.4 µM | 31.7 µM | 8.32 µM
3 | Cc1ccc(-c2cc(-c3ccco3)c(C#N)c(=S)[nH]2)cc1 | > 100 µM | > 100 µM | > 100 µM | > 100 µM | > 100 µM | > 100 µM | > 100 µM | > 100 µM | 61.9 µM | > 100 µM
4 | OCc1cn(Cc2ccccc2)c2ccccc12 | > 100 µM | > 40.9 µM | 22.9 µM | 19.5 µM | 0.123 µM | 35.8 µM | 78.2 µM | > 100 µM | > 47.2 µM | > 100 µM
5 | CC1=CC2C3(C)C(C)(C(C)=CP3(=O)c3c(C(C)C)cc(C(C)C)cc3C(C)C)C1P2(=O)c1c(C(C)C)cc(C(C)C)cc1C(C)C (stereo not given) | 9.08 µM | 7.44 µM | 7.97 µM | 5.79 µM | 6.08 µM | 3.01 µM | 10.4 µM | 6.72 µM | 3 µM | 4.36 µM
6 | Cc1nnc2n(c1=O)CCCN2C | > 100 µM | > 100 µM | > 100 µM | > 100 µM | > 100 µM | > 100 µM | > 100 µM | > 100 µM | > 100 µM | > 100 µM
7 | COC(=O)CNC(=O)C(CSC(=O)OCC1c2ccccc2-c2ccccc21)NC(=O)CCC(NC(=O)OCC1c2ccccc2-c2ccccc21)C(=O)OC (stereo not given) | 27.5 µM | 38.7 µM | 30.8 µM | 76.8 µM | > 100 µM | 59.2 µM | > 100 µM | 31.2 µM | > 100 µM | 35 µM
8 | CN(C)CCN(c1ccccn1)c1ccccn1 | > 100 µM | > 100 µM | > 100 µM | > 100 µM | > 100 µM | > 100 µM | > 100 µM | > 100 µM | > 100 µM | > 100 µM
9 | Cn1c2ccccc2n2c3ncccc3c(=O)c(C#N)c12 | > 36.7 µM | > 100 µM | > 100 µM | > 100 µM | 4.65 µM | > 40.7 µM | > 100 µM | 48.4 µM | 21.5 µM | 43.1 µM
10 | NC1=CC(=O)c2c(O)ccc(O)c2C1=O | 49.6 µM | 11.4 µM | 38.2 µM | 7.08 µM | > 100 µM | 25.2 µM | > 90.6 µM | 40.9 µM | 20.3 µM | 15.7 µM
11 | CO/N=C1\CC(NC(=O)C(F)(F)F)c2ccsc21 (stereo not given) | > 100 µM | > 100 µM | > 100 µM | > 100 µM | > 100 µM | > 100 µM | > 100 µM | > 100 µM | > 100 µM | > 100 µM
12 | O=CC(I)=C(c1ccccc1)c1ccccc1 | 36.1 µM | > 69.9 µM | 38.1 µM | 30.8 µM | 57 µM | 32.8 µM | 29.3 µM | 31.6 µM | 31.9 µM | 29.1 µM
13 | Cc1c2cccc-2c2cc(O)c3ccccc3c2n1-c1ccc(N(C)C)cc1 | 31.6 µM | 32.8 µM | 8 µM | 29 µM | 24.4 µM | 59 µM | 23.9 µM | 22.5 µM | 24.1 µM | 24.8 µM
14 | COc1ccc(N=Nc2c(-c3c(OC)cc4occc4c3OC)[nH]c(=O)c(C#N)c2C)cc1 | > 100 µM | > 100 µM | > 100 µM | > 100 µM | > 100 µM | > 100 µM | > 100 µM | > 100 µM | > 100 µM | > 100 µM
